Format in all cases: cell-based, human
The test system of assay [1] is A549 cells. Kind of assay: Cell cycle analysis by flow cytometry. The note with it: A549, 5 μM, 24 h. The protocol:
Before treatment, cells were synchronized, and the compounds were applied at various concentrations.
The A549 and DU145 cells (3 × 10^5/well) were seeded in 12-well plates and treated with various concentrations of the examined complexes and CDDP for 24 h. Synchronization of A549 and DU145 cell cultures was performed by serum starvation. Serum starvation is widely used for synchronizing donor cells by arresting them in the G 0/G 1 phase of the cell cycle. Cell cultures were seeded and incubated in growth medium with 20% FBS overnight to synchronize the cell cultures. Then, the cultures were rinsed with PBS (1×) and changed to a serum-free medium. After serum starvation for 18 h, the cells were passaged and released into the cell cycle by the addition of the serum. Then cells were treated with the examined compounds and CDDP for 24 h. For FACS analysis, cell samples were harvested with trypsinization and stained with propidium iodide (20 μg/mL). Cell cycle phase distributions were analyzed by flow cytometry (BD Bioscience). Experiments were reaped at least three times.
In general terms: Flow cytometry measures light scatter and fluorescence of single cells or particles in a stream.

The test system of assay [2] is DU145 cells. As to the kind of experiment: MTT cytotoxicity assay, DU145. A general note: Formazan colour is commonly taken as a measure of viable cells.
Description: (§4) Primary screening of the antiproliferative activity of the heteronuclear Ru­(II)–Cu­(II) complexes was performed by the commonly used MTT assay on four human cancer cell lines: MCF-7 (breast), A549 (lung adenocarcinoma), DU145 (prostate), and PANC-1 (pancreatic). In addition, normal human embryonic kidney (HEK293T) and human keratinocyte (HaCaT) cell lines were used as controls to assess the toxicity of these complexes. The IC50 values (the concentration that causes 50% inhibition of cell proliferation) examined for compounds are compared to those obtained for clinically used cisplatin (CDDP) under the same experimental conditions.
(§5) The MCF7 cell line (human breast adenocarcinoma; morphology: epithelial-like, ATCC: HTB-22), A549 cell line (human lung adenocarcinoma, morphology: epithelial, ATCC: CCL-185), PANC-1 (human pancreatic/duct carcinoma, morphology: epithelial, ATCC: CRL-1469), and HaCaT (human keratinocyte, ATCC PCS-200-011) were cultured in DMEM (Corning), supplemented with 10% fetal bovine serum (FBS) and with 1% streptomycin/penicillin. The DU145 cell line (human prostate carcinoma) and HEK293T and HEK293 cell line (human embryonic kidney) were cultured in minimum essential medium (MEM, Corning) with 10% FBS. Cultures were incubated at 37 °C under a humidified atmosphere containing 5% CO2. Cells were passaged using a solution containing 0.05% trypsin and 0.5 mM EDTA. All media and other ingredients were purchased from ALAB­(Poland) or Thermo Fisher Scientific (USA).
(§6) Since most of the studied compounds are insoluble in aqueous media, they needed to be predissolved in DMSO for biological evaluation. DMSO was used in cell cultures at a concentration below 0.1% (v/v) to minimize its cytotoxicity and changes in gene expression. Cytotoxicity of the studied compounds was assessed using an MTT assay performed according to the protocols described previously. […] After that time, solutions of compounds were washed out, cells were then washed three times with PBS (1X), and a fresh medium was applied. Each compound concentration was tested in five replicates and repeated at least three times. Determined values of IC50 (concentration of a drug required to inhibit the growth of 50% of the cells) are given as mean ± SD. […] IC50 values were determined, after 72 h, from the plots of cell viability in the presence of various concentrations of each compound by matching the dose–response curves.
The test system of a further assay is HEK293T cells. Kind of assay: MTT cytotoxicity assay, HEK293T.
Assay [3] has as its system BAX and BCL-2 genes' expression. Kind of assay: RT-qPCR of BAX and BCL-2 gene expression in A549 cells. The note with it: mRNA, control = 1. On the technique in general: In qPCR the cycle at which signal appears reflects the starting amount.
Description: In this study, using Reverse transcription (RT)-quantitative real-time PCR (RT-qPCR), we analyzed whether the expression ratio of Bax to Bcl-2 mRNA correlates with apoptosis or the proliferative activity of cancer cells. −
For this purpose, total RNA was isolated using the Total RNA Mini Plus kit (A&A Biotechnology, Gdansk, Poland) following the manufacturer’s instructions. A total of 1 μg of RNA was subjected to RT into complementary DNA (cDNA) using oligo­(dT)­18 and the TranScriba Kit (A&A Biotechnology, Gdansk, Poland). The qRT-PCR experiments were performed with the Sensitive RT HS-PCR Mix (A&A Biotechnology, Gdansk, Poland) on a real-time PCR thermal cycler from Bio-Rad. The TaqMan primers used in this study were obtained from Thermo Fisher Scientific/Invitrogen, specifically Bax (Hs00180269_m1), Bcl-2 (Hs04986394_s1), and GAPDH (4352932E). The relative transcript quantification was carried out using the 2^–ΔΔCt method with GAPDH as the reference gene.
A further assay has as its system MCF7 cells. As to the kind of experiment: MTT cytotoxicity assay, MCF7.
The test system of assay [4] is A549 cells. As to the kind of experiment: MTT cytotoxicity assay, A549.
Description: as §4, §5, §6
For the next assay, the system named is PANC-1 cells. As to the kind of experiment: MTT cytotoxicity assay, PANC-1.
The subject of the next assay is HaCaT cells. Kind of assay: MTT cytotoxicity assay, HaCaT.
The next assay deals with HEK293 cells. As to the kind of experiment: PrestoBlue HS cell viability assay, HEK293. The note with it: 24 h, dissolved in 0.9% NaCl. As for the experimental part:
(§1) Primary screening of the antiproliferative activity of the heteronuclear Ru(II)–Cu(II) complexes was performed by the commonly used MTT assay on four human cancer cell lines: MCF-7 (breast), A549 (lung adenocarcinoma), DU145 (prostate), and PANC-1 (pancreatic). In addition, normal human embryonic kidney (HEK293T) and human keratinocyte (HaCaT) cell lines were used as controls to assess the toxicity of these complexes. […] To verify whether the use of DMSO as a solvent influenced the cytotoxic activity of CDDP, we performed additional experiments (Figure S29) with CDDP (Sigma-Aldrich) dissolved in 0.9% NaCl as per the manufacturer’s recommendation. […]
(§2) Additionally, the viability of A549 and DU145 cell lines, as well as the control cell line HEK293, upon CDDP in 0.9% NaCl, was assessed using the resazurin-based PrestoBlue HS Cell Viability assay, according to the manufacturer’s protocol. […] Results were recorded using fluorescence (excitation 560 nm, emission 590 nm) and absorbance (570 nm), with fluorescence values calculated further using GraphPad Prism software, v. […]
(§3) Figure S29. […] Cells were incubated with varying concentrations of CDDP for 24 h and cell viability was measured by fluorescence intensity (excitation 560 nm, emission 590 nm). […]

In assay [5] the test system is DU145 cells. As to the kind of experiment: PrestoBlue HS cell viability assay, DU145. The note with it: 24 h, dissolved in 0.9% NaCl. The protocol: as §1, §2, §3
Assay [6] deals with A549 cells. As to the kind of experiment: PrestoBlue HS cell viability assay, A549. The note with it: 24 h, dissolved in 0.9% NaCl. The protocol: as §1, §2, §3
Where [7] appears, read: 24 h, Table 2 (bilosome comparison).
[8] abbreviates: 24 h treatment, DMSO predissolved.
Setting [9] is: 72 h (24 h + 48 h regeneration).

Description for HEK293T cells: as §4, §5, §6
Description for HaCaT cells: as §4, §5, §6
Excerpt for MCF7 cells: The IC50 values (the concentration that causes 50% inhibition of cell proliferation) examined for compounds are compared to those obtained for clinically used cisplatin (CDDP) under the same experimental conditions.
The MCF7 cell line (human breast adenocarcinoma; morphology: epithelial-like, ATCC: HTB-22), A549 cell line (human lung adenocarcinoma, morphology: epithelial, ATCC: CCL-185), PANC-1 (human pancreatic/duct carcinoma, morphology: epithelial, ATCC: CRL-1469), and HaCaT (human keratinocyte, ATCC PCS-200-011) were cultured in DMEM (Corning), supplemented with 10% fetal bovine serum (FBS) and with 1% streptomycin/penicillin. […] Cultures were incubated at 37 °C under a humidified atmosphere containing 5% CO2. Cells were passaged using a solution containing 0.05% trypsin and 0.5 mM EDTA.
as §6
Description for PANC-1 cells: as §4, §5, §6

A word on the IC50: it is the concentration needed to halve the response being measured. As for “[Ru(η^6-p-cymene)Cl2Pcfx-Cu(phen)](NO3) [RuPCpCu]”, the “effect on cell cycle” value in the assay with A549 cells [1] was “induced cell cycle arrest in the S phase”. The IC50 in the assay with DU145 cells [2] (setting [7]) turned out to be 31 ± 1.05 µM; with DU145 cells [2] (setting [8]) it was 31 ± 1.05 µM; in the assay on DU145 cells [2] (setting [9]) it was 15 ± 0.44 µM; in the assay with HEK293T cells (setting [7]), 644 ± 13.1 µM; in the assay with HEK293T cells (24 h treatment), 644 ± 13.1 µM; in the assay with HEK293T cells (setting [9]), 796 ± 8.9 µM. Further, the IC50 worked out at 25 ± 0.91 µM in the assay on MCF7 cells (24 h treatment); 44.4 ± 0.78 µM in the assay with A549 cells [4] (setting [8]); 12.6 ± 0.83 µM in the assay with A549 cells [4] (setting [9]); 25.9 ± 0.01 µM with PANC-1 cells (24 h treatment); 21.7 ± 1.02 µM in the assay on PANC-1 cells (setting [9]); 935 ± 9.3 µM in the assay with HaCaT cells (setting [7]). The IC50 with HaCaT cells (24 h treatment) was 935 ± 9.3 µM; with HaCaT cells (setting [9]) it was 834 ± 11.9 µM. In assay [3], the Bax/Bcl-2 ratio stood at 6.4.

`[NH2][Pt]([NH2])([Cl])[Cl]` [CDDP, cisplatin, reference compound]: the IC50 in the assay on DU145 cells [2] (setting [7]) came out at 68.3 ± 1.3 µM; in the assay with DU145 cells [2] (setting [8]), 68.3 ± 1.35 µM; in the assay with DU145 cells [2] (setting [9]) it was 65.5 ± 3.61 µM; in the assay on HEK293T cells (setting [7]), 21 ± 1.6 µM; in the assay on HEK293T cells (24 h treatment) it was 21 ± 1.81 µM; in the assay with HEK293T cells (setting [9]), 10.3 ± 2.15 µM. Besides, the 50% inhibitory concentration (IC50) in the assay on MCF7 cells (24 h treatment) was determined as 51.9 ± 4.61 µM; with MCF7 cells (setting [9]), 17.7 ± 8.6 µM; in the assay with HEK293 cells, 87 µM; in the assay with A549 cells [4] (setting [7]) it was 57 ± 1.3 µM; in the assay on A549 cells [4] (setting [8]), 57 ± 1.3 µM; in the assay on A549 cells [4] (setting [9]) it was 71.7 ± 3.7 µM. Besides, the IC50 with PANC-1 cells (24 h treatment) was found to be 95.6 ± 2.61 µM; in the assay with PANC-1 cells (setting [9]) it was 76.6 ± 1.68 µM; in the assay on HaCaT cells (setting [7]), 43.3 ± 1.1 µM; with HaCaT cells (24 h treatment), 43.3 ± 1.1 µM; in the assay on HaCaT cells (setting [9]) it was 17.3 ± 3.1 µM; with DU145 cells [5], 101 µM. In the assay on A549 cells [6], the IC50 was determined as 51.9 µM. Also, in [3], the Bax/Bcl-2 ratio is reported as 4.56.

In the case of “[Ru(η^6-p-cymene)Cl2Psfx-Cu(phen)] [RuPSfCu]”, the “effect on cell cycle” value with A549 cells [1] is reported as “induced cell cycle arrest in the S phase”. For the same molecule, the IC50 with DU145 cells [2] (setting [8]) was 16 ± 0.05 µM; in the assay on DU145 cells [2] (setting [9]), 13.5 ± 0.35 µM; with HEK293T cells (24 h treatment) it was 546 ± 11.2 µM; in the assay on HEK293T cells (setting [9]), 695 ± 14.2 µM; with MCF7 cells (24 h treatment), 17.7 ± 0.93 µM; with A549 cells [4] (setting [8]) it was 41.1 ± 0.7 µM. Also, the IC50 in the assay with A549 cells [4] (setting [9]) is 25.4 ± 1.66 µM; with PANC-1 cells (24 h treatment) it was 27.2 ± 0.86 µM; in the assay with PANC-1 cells (setting [9]), 22.1 ± 0.68 µM; with HaCaT cells (24 h treatment) it was more than 1000 µM; with HaCaT cells (setting [9]), 741 ± 13.2 µM.

For the molecule “[Ru(η^6-p-cymene)Cl2Pnfx-Cu(phen)](NO3) [RuPNrCu]”, the IC50 in the assay with DU145 cells [2] (setting [8]) came out at 14.5 ± 1.04 µM; with DU145 cells [2] (setting [9]) it was 14.9 ± 0.23 µM; in the assay on HEK293T cells (24 h treatment) it was 677 ± 12.7 µM; in the assay with HEK293T cells (setting [9]), 798 ± 14.8 µM; in the assay with MCF7 cells (24 h treatment) it was 24.7 ± 1.95 µM; in the assay on A549 cells [4] (setting [8]) it was 48.1 ± 0.06 µM. In addition, the IC50 is 18.8 ± 3.4 µM in the assay with A549 cells [4] (setting [9]); 29.5 ± 0.81 µM in the assay on PANC-1 cells (24 h treatment); 23.1 ± 1.09 µM in the assay with PANC-1 cells (setting [9]); more than 1000 µM with HaCaT cells (24 h treatment); 873 ± 18.8 µM in the assay on HaCaT cells (setting [9]).

Turning to “[Ru(η^6-p-cymene)Cl2Plfx-Cu(phen)](NO3) [RuPLmCu]”, the IC50 in the assay with DU145 cells [2] (setting [8]) was determined as 18.9 ± 1.21 µM; with DU145 cells [2] (setting [9]), 12.7 ± 0.92 µM; in the assay with HEK293T cells (24 h treatment), 634 ± 9.1 µM; in the assay on HEK293T cells (setting [9]), 782 ± 14.2 µM; in the assay on MCF7 cells (24 h treatment), 26.7 ± 2.82 µM; in the assay on A549 cells [4] (setting [8]) it was 42.6 ± 0.68 µM. Moreover, the IC50 with A549 cells [4] (setting [9]) is 24.3 ± 0.91 µM; with PANC-1 cells (24 h treatment) it was 28.3 ± 0.71 µM; in the assay on PANC-1 cells (setting [9]) it was 22.7 ± 1.03 µM; in the assay on HaCaT cells (24 h treatment), 936 ± 10.1 µM; in the assay on HaCaT cells (setting [9]), 833 ± 12.2 µM.
